Assay results reported in patent US10407421B2, “Bicyclic aryl monobactam compounds and methods of use thereof for the treatment of bacterial infections” (priority 2016, dated 2019).
Where a name gives a salt, the structure may show the parent alone.

Legend:
Assay type in all cases: cell-based
Details in all cases: in the presence of β lactamase inhibitor Relebactam 4 μg/mL; 22 hours at 35±2° C.; lowest concentration inhibiting 95% of growth (OD600)
[1] = tested on: Acinetobacter baumannii expressing TEM-1, AmpC, and Oxa-24/40 (CL6188); experiment: Growth inhibitory concentration (OD600), Acinetobacter baumannii CL6188
Protocol: (§1) Antibiotic Activity: Determination of Growth Inhibitory Concentration
(§2) The concentrations of compounds required to inhibit the growth of various strains of bacteria were determined in an assay that assessed bacterial growth by measuring optical density at 600 nm (OD600). The bacterial strains tested included the clinical strains Escherichia coli expressing NDM-1 (CLB30016), Klebsiella pneumoniae expressing KPC-1 (CL6569), Acinetobacter baumannii expressing TEM-1, AmpC, and Oxa-24/40 (CL6188) and Pseudomonas aeruginosa expressing AmpC (CL5701). All compounds were tested in the presence of a β lactamase inhibitor (BLi, Relebactam) in 384-well microplates. The clinical strains were stored as frozen single use stocks, thawed and diluted into 1.1× cation-adjusted Mueller-Hinton II broth to achieve approximately 2×10^5 CFU/mL. Test compounds were dissolved in DMSO and diluted 1:50 in the assay, resulting in a final concentration range of 100 μM to 0.098 μM. […] At the end of the incubation, absorbance at 600 nm was determined using a spectrophotometer. Inhibition was quantitated by identifying the lowest concentration of test compound that was required to inhibit 95% of the growth of the bacteria. The results for Examples 1-73 are reported in Table I, expressed as the concentration of compound that inhibited 95% of bacterial growth (Minimum Inhibitory Threshold Concentration; MITC95).

[2] = tested on: Escherichia coli expressing NDM-1 (CLB30016); experiment: Growth inhibitory concentration (OD600), Escherichia coli CLB30016
Protocol: as §1, §2

[3] = tested on: Pseudomonas aeruginosa expressing AmpC (CL5701); experiment: Growth inhibitory concentration (OD600), Pseudomonas aeruginosa CL5701
Protocol: as §1, §2

[4] = tested on: Klebsiella pneumoniae expressing KPC-1 (CL6569); experiment: Growth inhibitory concentration (OD600), Klebsiella pneumoniae CL6569
Protocol: as §1, §2

C[n+]1c2ccc(OC[C@H](O/N=C(\C(=O)N[C@@H]3C(=O)N(OS(=O)(=O)[O-])C3(C)C)c3csc(N)n3)C(=O)O)cc2cn1C[C@H](O)CN [Example 51, (S)-3-((Z)-2-(((S)-2-((2-((R)-3-amino-2-hydroxypropyl)-1-methyl-2H-indazol-1-ium-5-yl)oxy)-1-carboxyethoxy)imino)-2-(2-aminothiazol-4-yl)acetamido)-2,2-dimethyl-4-oxoazetidin-1-yl Sulfate]
AB_CL6188 MITC95 [1]: 6.25 µM | EC_CLB30016 MITC95 [2]: 25 µM | PA_CL5701 MITC95 [3]: 12.5 µM | KP_CL6569 MITC95 [4]: 0.78 µM
